Consider twelve molecules from US9884063B2, “Amido-substituted azole compounds” (Bayer Pharma Aktiengesellschaft, priority 2014, dated 2018).

The target of the assay is T1, TNKS1 (Homo sapiens, UniProt O95271).
T1 sequence (O95271 1-1327): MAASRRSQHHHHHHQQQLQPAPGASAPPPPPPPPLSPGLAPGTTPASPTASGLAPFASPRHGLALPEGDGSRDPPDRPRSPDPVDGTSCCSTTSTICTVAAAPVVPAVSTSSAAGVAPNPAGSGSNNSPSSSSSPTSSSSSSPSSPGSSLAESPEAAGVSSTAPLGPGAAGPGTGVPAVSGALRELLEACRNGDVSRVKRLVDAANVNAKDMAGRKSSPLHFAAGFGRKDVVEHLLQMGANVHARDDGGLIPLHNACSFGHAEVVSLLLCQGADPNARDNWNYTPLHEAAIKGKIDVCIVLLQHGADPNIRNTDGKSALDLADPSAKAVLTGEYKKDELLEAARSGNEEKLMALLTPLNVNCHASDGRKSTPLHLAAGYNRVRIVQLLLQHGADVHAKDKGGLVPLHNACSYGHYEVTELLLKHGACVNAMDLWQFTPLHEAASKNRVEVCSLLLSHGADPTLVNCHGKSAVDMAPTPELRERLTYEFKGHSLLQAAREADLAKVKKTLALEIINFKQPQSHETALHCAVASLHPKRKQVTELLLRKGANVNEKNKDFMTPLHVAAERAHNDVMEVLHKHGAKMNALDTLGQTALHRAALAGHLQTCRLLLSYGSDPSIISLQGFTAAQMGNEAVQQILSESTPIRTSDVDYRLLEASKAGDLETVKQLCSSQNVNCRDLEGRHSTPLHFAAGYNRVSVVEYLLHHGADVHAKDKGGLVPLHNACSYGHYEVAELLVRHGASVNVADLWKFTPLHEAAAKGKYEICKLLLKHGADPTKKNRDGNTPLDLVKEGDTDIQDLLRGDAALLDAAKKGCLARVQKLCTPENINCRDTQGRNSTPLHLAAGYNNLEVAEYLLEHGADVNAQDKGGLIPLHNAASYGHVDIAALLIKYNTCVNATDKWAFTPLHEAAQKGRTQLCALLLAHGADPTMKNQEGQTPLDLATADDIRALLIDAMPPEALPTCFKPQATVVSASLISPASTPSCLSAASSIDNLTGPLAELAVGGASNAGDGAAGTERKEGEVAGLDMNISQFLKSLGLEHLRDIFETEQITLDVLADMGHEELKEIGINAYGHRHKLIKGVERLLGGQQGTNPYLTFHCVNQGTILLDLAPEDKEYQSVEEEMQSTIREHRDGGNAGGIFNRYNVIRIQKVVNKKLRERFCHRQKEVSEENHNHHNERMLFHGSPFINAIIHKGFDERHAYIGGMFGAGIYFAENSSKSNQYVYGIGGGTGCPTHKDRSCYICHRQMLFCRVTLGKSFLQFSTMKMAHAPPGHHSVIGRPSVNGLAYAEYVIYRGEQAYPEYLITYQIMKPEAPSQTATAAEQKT
Description: Modified TNKS1 Assay 2 (auto-parsylation, [3H]-NAD+ SPA). The assay is classed as biochemical. The following applies: 6 nM TNKS1, 96 well.

Turning to `CNC(=O)c1[nH]c(C(C)C)nc1C(=O)Nc1ccc(NC(=O)c2ccc(F)cc2Cl)cc1` [Example 106, N^4-{4-[(2-chloro-4-fluorobenzoyl)amino]phenyl}-2-isopropyl-N^5-methyl-1H-imidazole-4,5-dicarboxamide], the IC50 was > 10000 nM.

On to `COC(=O)c1nc[nH]c1C(=O)Nc1ccc(NC(=O)c2ccc(F)cc2Cl)c(OC)c1` [Example 94, methyl 5-({4-[(2-chloro-4-fluorobenzoyl)amino]-3-methoxyphenyl}carbamoyl)-1H-imidazole-4-carboxylate], for which the IC50 came out at 440 nM.

In the case of `COC(=O)c1nc[nH]c1C(=O)Nc1ccc(NC(=O)c2ccccc2Cl)c(C)c1` [Example 86, methyl-5-({4-[(2-chlorobenzoyl)amino]-3-methylphenyl}carbamoyl)-1H-imidazole-4-carboxylate], the IC50 was found to be 2600 nM.

Molecule `COc1cc(NC(=O)c2[nH]cnc2C(=O)NCCN2CCCCC2)ccc1NC(=O)c1ccc(F)cc1Cl` [Example 97, N^5-{4-[(2-chloro-4-fluorobenzoyl)amino]-3-methoxyphenyl}-N^4-[2-(piperidin-1-yl)ethyl]-1H-imidazole-4,5-dicarboxamide] came in with an IC50 of 60 nM.

`COC(=O)c1nc[nH]c1C(=O)Nc1ccc(NC(=O)c2ccccc2Cl)c(OC)c1` [Example 98, methyl 5-({4-[(2-chlorobenzoyl)amino]-3-methoxyphenyl}carbamoyl)-1H-imidazole-4-carboxylate] registered an IC50 of 340 nM.

As to `CNC(=O)c1nc[nH]c1C(=O)Nc1ccc(NC(=O)c2ccccc2Cl)nc1` [Example 112, N^5-{6-[(2-chlorobenzoyl)amino]pyridin-3-yl}-N^4-methyl-1H-imidazole-4,5-dicarboxamide], the IC50 amounted to 250 nM.

`COC(=O)c1nc[nH]c1C(=O)Nc1ccc(NC(=O)c2ccc(F)cc2)c(OC)c1` [Example 102, methyl 5-({4-[(4-fluorobenzoyl)amino]-3-methoxyphenyl}carbamoyl)-1H-imidazole-4-carboxylate]: the IC50 was > 10000 nM.

The molecule `CN(C)CCNC(=O)c1nc[nH]c1C(=O)Nc1ccc(NC(=O)c2ccccc2Cl)nc1` [Example 113, N^5-{6-[(2-chlorobenzoyl)amino]pyridin-3-yl}-N^4-[2-(dimethylamino)ethyl]-1H-imidazole-4,5-dicarboxamide] came in with an IC50 of 20 nM.

As to `CNC(=O)c1nc[nH]c1C(=O)Nc1ccc(NC(=O)c2ccc(F)cc2Cl)c(OC)c1` [Example 95, N^5-{4-[(2-chloro-4-fluorobenzoyl)amino]-3-methoxyphenyl}-N^4-methyl-1H-imidazole-4,5-dicarboxamide], the IC50 came to 80 nM.

`Cc1cc(NC(=O)c2[nH]cnc2C(=O)NCCN2CCCCC2)ccc1NC(=O)c1ccccc1Cl` [Example 89, N^5-{4-[(2-chlorobenzoyl)amino]-3-methylphenyl}-N^4-[2-(piperidin-1-yl)ethyl]-1H-imidazole-4,5-dicarboxamide] registered an IC50 of 30 nM.

Regarding `COc1cc(NC(=O)c2[nH]cnc2C(=O)NCCN(C)C)ccc1NC(=O)c1ccc(F)cc1Cl` [Example 96, N^5-{4-[(2-chloro-4-fluorobenzoyl)amino]-3-methoxyphenyl}-N^4-[2-(dimethylamino)ethyl]-1H-imidazole-4,5-dicarboxamide], the IC50 amounted to 30 nM.

As to `COc1cc(NC(=O)c2[nH]cnc2C(=O)NCCN(C)C)ccc1NC(=O)c1ccccc1Cl` [Example 100, N^5-{4-[(2-chlorobenzoyl)amino]-3-methoxyphenyl}-N^4-[2-(dimethylamino)ethyl]-1H-imidazole-4,5-dicarboxamide], the IC50 was 50 nM.
